The numbers were not newly measured in patent publication US20240197774A1, “Synthesis of Antimicrobial PVP-coated Bismuth Nanoparticles” (Board of Regents, The University of Texas System, priority 2021, published 2024), which cites them from elsewhere.

This data set has as its system humans. The settings on record: intake for years, considered non-toxic.

In the case of `[Bi]` [Bismuth], the Intake is 5 to 20 g/day/kg.
